Data reported in US20230027059A1, “METHODS AND COMPOSITIONS FOR GENERATING HUMAN MIDBRAIN NEURAL PROGENITOR CELLS” (Trallhead Biosystems Inc., priority 2021, published 2023).

How the values were obtained:
[1] = test system: stage 1 neural stem cells; assay: First 12-factor HD-DoE experiment, stage 2: additional 3 days after stage 1, gene expression modeled, with dynamic profile and factor criticality analysis; format: cell-based, human; settings: for FOXA2 expression level in absence of the factor / LMX1A expression level in absence of the factor: stage 2 recipe, first experiment model; for FOXA2 expression level in absence of the factor: 10,000 with all factors; for LMX1A expression level in absence of the factor: 30,000 with all factors
Procedure: To develop the recipe for each stage, the impact of agonists and antagonists of multiple signaling pathways (referred to herein as “effectors”) on the expression of two sets of 53 pre-selected genes after a 3-day treatment was tested and modeled. These effectors are small molecules or proteins that are commonly used during stepwise differentiation of stem cells to specific fates. The choice of the effectors to test was based on current literature on neural induction in the midbrain region of the developing brain and differentiation of stem cells to neural progenitors. To test the effectors, experiments with at least 8 factors were designed that can assess the response of cells to 48 or more different combinations of effectors in a range of concentrations. To analyze the models, we focused on expression of genes expressed in the midbrain region, including OTX2, DMBX1, FOXA2, LMX1A, and on the absence of GB X2, which is a hindbrain marker. The impact of each effector on gene expression level is defined by a parameter called factor contribution that is calculated for each effector during the modeling. To further guide the differentiation of midbrain-committed neural stem cells to neural progenitor cells at stage 2, we performed an additional HD-DoE experiment. We thereby obtained additional gene regulatory models that were used for preparation of differentiation protocol. The basis of this was a 12-factor HD-DoE experiment with focus on initiation of differentiation of cells toward midbrain neural progenitor cells for an additional 3 days after termination of stage 1 treatment. Here, we focused on expression of LMX1A and FOXA2 in neural progenitor cells with low to zero expression of GBX2. LMX1A had significant high expression level in the model with value of 47888. Therefore, we used optimization setting for this gene to identify the positive factors. The factors in this experiment included SC79, MK2206, ZM336372, PD0325901, CHIR99021, A 83-01, TTNPB, AGN193109, GW3965, SR9243, Purmorphamine and GSI-XX. […] Therefore, we used dynamic profile analysis to adjust the recipe for optimized expression of both LMX1A and FOXA2 genes and minimum expression of GBX2 (FIG. 7). It was observed that even without addition of Purmorphamine, expression level of FOXA2 was at 5000, therefore inclusion of this effector is not essential, however it can improve expression of FOXA2. […] A 83-01 was another factor with opposite effect on FOXA2 and LMX1A that was included in the final recipe. […] To assess the impact of elimination of each validated factor, we used dynamic profile analysis and compared the expression level of genes of interest in absence of each finalized factor while others are present. […] In the stage 2 recipe, each of the six finalized factors were removed while the other five factors were present and the expression levels of FOXA2, LMX1A and GBX2 were assessed, compared to the levels in the presence of all factors. According to the first experiment model, the absence of TTNPB lead to a rise of GBX2 expression, while the value of FOXA2 and LMX1A reduced drastically from 10,000 to 0 and 30,000 to 15,000, respectively. The absence of A 83-01 reduced the expression of FOXA2 from 10,000 to 7000, however, as expected, the value of LMX1A increased from 30,000 to 40,000. […] According to the second experiment model, the absence of BMP7 and MK2206 both reduced the level of FOXA2 while increasing the value of LMX1A, with BMP7 as the main effector that led to 0 expression of FOXA2.

[2] = test system: stage 1 neural stem cells; assay: Second 12-factor HD-DoE experiment, stage 2: hiPSCs in stage 1 media 3 days, then 96 factor combinations for 3 days, with dynamic profile and factor criticality analysis; format: cell-based, human; settings: for FOXA2 expression level in absence of the factor / LMX1A expression level in absence of the factor: stage 2 recipe, second experiment model; for LMX1A expression level in absence of the factor: 4000 with all factors; for impact on expression of GBX2: stage 2, second 12-factor experiment, dynamic profile; for factor contribution: negative impact
Procedure: To test additional factors like FGF8 that is routinely used in midbrain differentiation protocols, we ran another 12-factor experiment consisting of LDN193189, BMP7, A 83-01, Activin A, Takinib, PD0325901, MK2206, FGF8b, AZD3147, MHY1485, GSI-XX and Yhhu 3792. Similar to the previous experiment, hiPSCs were treated with stage 1 media for 3 days and then treated with 96 conditions of combinations of the factors for an additional 3 days. When this model was optimized for maximum expression of FOXA2, BMP7 with factor contribution of 13.7 and MK2206 with 14.2 had the most impact on its expression followed by AZD 3147 with factor contribution of 10.9. […] Another difference was BMP7, which has a negative impact on LMX1A. However, the factor contribution is less than 10. Therefore, to evaluate the effect of interactions between the factors and the optimal condition for the expression of both FOXA2 and LMX1A, we used dynamic profile analysis (FIG. 10). […] To assess the impact of elimination of each validated factor, we used dynamic profile analysis and compared the expression level of genes of interest in absence of each finalized factor while others are present. […] In the stage 2 recipe, each of the six finalized factors were removed while the other five factors were present and the expression levels of FOXA2, LMX1A and GBX2 were assessed, compared to the levels in the presence of all factors. According to the first experiment model, the absence of TTNPB lead to a rise of GBX2 expression, while the value of FOXA2 and LMX1A reduced drastically from 10,000 to 0 and 30,000 to 15,000, respectively. The absence of A 83-01 reduced the expression of FOXA2 from 10,000 to 7000, however, as expected, the value of LMX1A increased from 30,000 to 40,000. […] According to the second experiment model, the absence of BMP7 and MK2206 both reduced the level of FOXA2 while increasing the value of LMX1A, with BMP7 as the main effector that led to 0 expression of FOXA2.

[3] = test system: human pluripotent stem cells; assay: 13-factor HD-DoE experiment, stage 1: 3-day effector treatment, gene expression modeled, with dynamic profile and factor criticality analysis; format: cell-based; settings: for LMX1A expression level in absence of the factor / FOXA2 expression level in absence of the factor / DMBX1 expression level in absence of the factor / OTX2 expression level in absence of the factor: stage 1 recipe, other four factors present; for LMX1A expression level in absence of the factor: 300 with all five factors; for FOXA2 expression level in absence of the factor: 600 with all five factors; for DMBX1 expression level in absence of the factor: 3000 with all five factors; for OTX2 expression level in absence of the factor: 12000 with all five factors
Source text: This example utilizes a method of High-Dimensional Design of Experiments (HD-DoE), as previously described in Bukys et al. (2020) Iscience 23:101346. The method employs computerized design geometries to simultaneously test multiple process inputs and offers mathematical modeling of a deep effector/response space. The method allows for finding combinatorial signaling inputs that control a complex process, such as during cell differentiation.
It allows testing of multiple plausible critical process parameters, as such parameters impact output responses, such as gene expression. Because gene expression provides hallmark features of the phenotype of, for example, a human cell, the method can be applied to identify, and understand, which signaling pathways control cell fate. In the current example, the HD-DOE method was applied with the intent to find conditions for induction of midbrain neural progenitor-expressed genes, directly from the pluripotent stem cell state.
To develop the recipe for each stage, the impact of agonists and antagonists of multiple signaling pathways (referred to herein as “effectors”) on the expression of two sets of 53 pre-selected genes after a 3-day treatment was tested and modeled. These effectors are small molecules or proteins that are commonly used during stepwise differentiation of stem cells to specific fates. The choice of the effectors to test was based on current literature on neural induction in the midbrain region of the developing brain and differentiation of stem cells to neural progenitors.
To test the effectors, experiments with at least 8 factors were designed that can assess the response of cells to 48 or more different combinations of effectors in a range of concentrations. To analyze the models, we focused on expression of genes expressed in the midbrain region, including OTX2, DMBX1, FOXA2, LMX1A, and on the absence of GB X2, which is a hindbrain marker. The impact of each effector on gene expression level is defined by a parameter called factor contribution that is calculated for each effector during the modeling.
To identify the recipe of stage 1 of differentiation, cells were treated with various effectors for 3 days and the gene expression of cells was modeled. […] This model consisted of 13 factors including LDN193189, PD173074, BLU9931, Purmorphamine, SC79, MK2206, ZM336372, PD0325901, CHIR99021, XAV939, UCLA-gp130, Tofacitinib and GO 6983.
LDN193189 and CHIR99021 are common in both optimization settings and the rest of the factors except Purmorphamine, have a factor contribution less than 10. Therefore, we focused on impact of addition of Purmorphamine to the original 4 effectors.
This assessment was done through dynamic profile analysis of the model with focus on expression of OTX2, DMBX1, LMX1A and FOXA2 (FIG. 3).
To assess the impact of elimination of each validated factor, we used dynamic profile analysis and compared the expression level of genes of interest in absence of each finalized factor while others are present.
In the stage 1 recipe, each of the five finalized factors were removed while the other four factors were present and the expression levels of OTX2, DMBX1, FOXA2 and LMX1A was assessed compared to the levels in the presence of all five factors (FIGS. 11A-B). […] Expression level of DMBX1 increased in absence of LDN193189, however values of OTX2, FOXA2 and LMX1A decreased.

[4] = stage 2, first 12-factor experiment, dynamic profile
[5] = dynamic profile, Purmorphamine added to the original 4 effectors

Cc1cccc(-c2nn(C(=S)Nc3ccccc3)cc2-c2ccnc3ccccc23)n1 [A 83-01]
FOXA2 expression level in absence of the factor [1]: 7000
LMX1A expression level in absence of the factor [1]: 40,000

C[C@H]1COCCN1c1cc(C2(S(=O)(=O)C3CC3)CC2)nc(-c2ccc(NC(=S)NCCO)cc2)n1 [AZD 3147]
FOXA2 expression level in absence of the factor [2]: almost no effect
LMX1A expression level in absence of the factor [2]: 2000

Cc1c[nH]c(-c2cnc(NCCNc3ccc(C#N)cn3)nc2-c2ccc(Cl)cc2Cl)n1 [CHIR99021]
impact on expression of GBX2 [1, 4]: increases
impact on expression of LMX1A [1, 4]: positive impacts
LMX1A expression level in absence of the factor [3]: reduced
FOXA2 expression level in absence of the factor [3]: reduced
DMBX1 expression level in absence of the factor [3]: reduced
OTX2 expression level in absence of the factor [3]: reduced

O=C(O)Cc1cccc(OCCCN(Cc2cccc(C(F)(F)F)c2Cl)CC(c2ccccc2)c2ccccc2)c1 [GW3965]
FOXA2 expression level in absence of the factor [1]: 17,000
LMX1A expression level in absence of the factor [1]: 10,000

c1ccc2c(-c3cnn4cc(-c5ccc(N6CCNCC6)cc5)cnc34)ccnc2c1 [LDN193189]
LMX1A expression level in absence of the factor [3]: decreased
FOXA2 expression level in absence of the factor [3]: decreased
DMBX1 expression level in absence of the factor [3]: increased
OTX2 expression level in absence of the factor [3]: decreased

NC1(c2ccc(-c3nc4ccn5c(=O)[nH]nc5c4cc3-c3ccccc3)cc2)CCC1 [MK2206]
impact on expression of GBX2 [2]: desirable impact
FOXA2 expression level in absence of the factor [2]: reduced
LMX1A expression level in absence of the factor [2]: increasing
LMX1A expression level in absence of the factor [3]: stayed the same
FOXA2 expression level in absence of the factor [3]: stayed the same
DMBX1 expression level in absence of the factor [3]: 1500
OTX2 expression level in absence of the factor [3]: 9500

O=C(NOC[C@H](O)CO)c1ccc(F)c(F)c1Nc1ccc(I)cc1F [PD0325901]
LMX1A expression level in absence of the factor [3]: 500
FOXA2 expression level in absence of the factor [3]: 700
DMBX1 expression level in absence of the factor [3]: 900

c1ccc2c(Oc3nc(Nc4ccc(N5CCOCC5)cc4)c4ncn(C5CCCCC5)c4n3)cccc2c1 [Purmorphamine]
expression level of FOXA2 without addition of the effector ([1]; dynamic profile analysis, stage 2): 5000
DMBX1 expression level [3, 5]: ~3000
LMX1A expression level [3, 5]: ~450
OTX2 expression level [3, 5]: ~11000
LMX1A expression level in absence of the factor [3]: beneficial
FOXA2 expression level in absence of the factor [3]: reduction
DMBX1 expression level in absence of the factor [3]: beneficial
OTX2 expression level in absence of the factor [3]: beneficial

C/C(=C\c1ccc(C(=O)O)cc1)c1ccc2c(c1)C(C)(C)CCC2(C)C [TTNPB]
FOXA2 expression level in absence of the factor [1]: 0
LMX1A expression level in absence of the factor [1]: 15,000

COc1cccc(Oc2cccc3nc(Nc4ccc(C(C)C)cc4)nc(N)c23)c1 [Yhhu 3792]
impact on expression of GBX2 [2]: positive effect

FGF8b
factor contribution ([2]; model optimized for maximum expression of FOXA2): 12.8
factor contribution ([2]; model optimized for maximum expression of LMX1A): 16.9

B1: BMP7 (protein, UniProt P18075 293-431, looked up)
Bone morphogenetic protein 7: STGSKQRSQNRSKTPKNQEALRMANVAENSSSDQRQACKKHELYVSFRDLGWQDWIIAPEGYAAYYCEGECAFPLNSYMNATNHAIVQTLVHFINPETVPKPCCAPTQLNAISVLYFDDSSNVILKKYRNMVVRACGCH
notes: BMP pathway agonist
FOXA2 expression level in absence of the factor [2]: 0
LMX1A expression level in absence of the factor [2]: increasing
